We go through two compounds from patent US20030215462A1, “Use of UGT inhibitors to increase bioavailability” (priority 2001, published 2003).

Data set [1] deals with UGT enzymes of pooled human jejunum microsomes. The experiment in a line: Inhibition of raloxifene glucuronidation (G1, G2) in pooled human jejunum microsomes. To be noted: jejunum HJ61; inhibitor 50 μM. The data set is classed as biochemical. How it is done:
Compounds were eluted using a binary solvent gradient system. […] Solvent B was methanol. […] Detection was at 280 nm.
Standardized incubations utilized […] microsomal protein, 1 mM UDPGA and a 30 min incubation time.

Data set [2] relates to T1, UGT enzymes of human liver microsomes.
T1 construct: residual metabolism (% of control), E2-3-β-D-glucuronide; other: liver 032101; residual metabolism (% of control), E2-3-β-D-glucuronide
In words: Inhibition of estradiol (E2) glucuronidation in human liver microsomes. The note with it: liver 032101; E2 50 μM; inhibitor 50 μM. The data set is classed as biochemical. An excerpt:
(§1) Compounds were eluted using a binary solvent gradient system where solvent A was dilute phosphoric acid (pH 3) and solvent B was 80:20 acetonitrile-methanol. […] Detection was at 280 nm.
For orientation: Liver microsomes are vesicles of endoplasmic reticulum, rich in cytochrome P450 enzymes.

Data set [3] relates to T2, UGT enzymes of human liver microsomes.
T2 construct: residual metabolism (% of control), E2-17-β-D-glucuronide; other: liver 032101; residual metabolism (% of control), E2-17-β-D-glucuronide
The data set is described as above. It is filed as biochemical. The note with it: liver 032101; E2 50 μM; inhibitor 50 μM.
Text: as §1

The test system of data set [4] is UGT enzymes of human liver microsomes. The description is as above. It is filed as biochemical. To be noted: liver 062101; E2 50 μM; inhibitor 50 μM.
Text: as §1

Data set [5] concerns UGT enzymes of pooled human jejunum microsomes. The experiment in a line: Inhibition of 2ME2 glucuronidation (MG1) in pooled human jejunum microsomes. The note with it: jejunum HJ61, 2ME2 50 μM. It is filed as biochemical.
Text: as §1

For data set [6], the target named is T3, UGT enzymes of human liver microsomes (Homo sapiens, UniProt P16662).
T3 construct: residual metabolism (percentage of control), zidovudine glucuronidation; other: liver lot 062101; residual metabolism (percentage of control), zidovudine glucuronidation; residual metabolism (percentage of control)
T3 sequence (P16662 1-529): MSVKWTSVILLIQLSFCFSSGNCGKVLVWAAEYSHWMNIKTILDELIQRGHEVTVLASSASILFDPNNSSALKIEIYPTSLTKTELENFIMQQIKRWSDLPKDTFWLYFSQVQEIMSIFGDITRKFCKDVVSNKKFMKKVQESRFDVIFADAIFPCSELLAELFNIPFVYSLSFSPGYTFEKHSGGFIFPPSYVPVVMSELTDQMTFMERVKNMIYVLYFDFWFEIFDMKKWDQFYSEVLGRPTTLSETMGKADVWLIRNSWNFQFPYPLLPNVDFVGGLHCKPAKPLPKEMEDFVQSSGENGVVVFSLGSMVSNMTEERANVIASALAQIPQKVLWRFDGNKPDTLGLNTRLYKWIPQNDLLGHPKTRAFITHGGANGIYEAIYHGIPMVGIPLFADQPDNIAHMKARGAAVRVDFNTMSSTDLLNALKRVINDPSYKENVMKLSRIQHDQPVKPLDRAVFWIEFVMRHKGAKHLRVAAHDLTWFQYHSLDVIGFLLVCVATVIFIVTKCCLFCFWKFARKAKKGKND
In words: Inhibition of zidovudine glucuronidation in human liver microsomes. The data set is classed as biochemical. To be noted: liver lot 062101. How it is done:
Compounds were eluted using a binary solvent gradient system where solvent A was dilute phosphoric acid (pH 3) and solvent B was acetonitrile.
Standardized incubations utilized 500 μM zidovudine substrate, 1 mg/ml microsomal protein, 5 mM UDPGA and a 30 min incubation time. […] Int.

In a further data set the target is T4, UGT1A9 (Homo sapiens, UniProt O60656).
T4 sequence (O60656 26-530): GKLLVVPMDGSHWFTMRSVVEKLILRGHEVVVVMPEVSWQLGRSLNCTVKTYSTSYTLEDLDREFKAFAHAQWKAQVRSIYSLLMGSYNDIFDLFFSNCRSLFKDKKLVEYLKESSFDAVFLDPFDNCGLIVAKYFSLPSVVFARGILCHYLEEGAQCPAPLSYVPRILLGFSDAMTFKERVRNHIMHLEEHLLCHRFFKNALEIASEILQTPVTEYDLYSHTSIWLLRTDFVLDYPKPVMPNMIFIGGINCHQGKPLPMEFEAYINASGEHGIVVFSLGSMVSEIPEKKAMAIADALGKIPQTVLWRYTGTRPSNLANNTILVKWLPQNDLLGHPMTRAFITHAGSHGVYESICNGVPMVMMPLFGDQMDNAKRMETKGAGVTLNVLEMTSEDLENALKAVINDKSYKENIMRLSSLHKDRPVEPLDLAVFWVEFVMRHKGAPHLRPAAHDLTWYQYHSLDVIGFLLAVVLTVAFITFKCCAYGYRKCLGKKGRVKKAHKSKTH
The experiment in a line: Inhibition of raloxifene glucuronidation by recombinant UGT1A9 Supersomes. The note with it: for % of control metabolism, raloxifene G1 / % of control metabolism, raloxifene G2: UGT1A9; for Inhibition of raloxifene glucuronidation, UGT1A9, first line per inhibitor (G1): first line (G1, metabolite not given); for Inhibition of raloxifene glucuronidation, UGT1A9, first line per inhibitor (G1) / Inhibition of raloxifene glucuronidation, UGT1A9, second line per inhibitor (G2): raloxifene 50 μM, 250 μg/ml Supersomes, 1 mM UDPGA, 15 min; for Inhibition of raloxifene glucuronidation, UGT1A9, second line per inhibitor (G2): second line (G2, metabolite not given); for activity at 15 min, 25 µM / activity at 15 min, 50 µM: human, Supersomes with recombinant human UGT1A9, pH 7.5, probe raloxifene 50 μM.

Another data set has as its target T5, UGT1A8 (Homo sapiens, UniProt Q9HAW9).
T5 sequence (Q9HAW9 26-530): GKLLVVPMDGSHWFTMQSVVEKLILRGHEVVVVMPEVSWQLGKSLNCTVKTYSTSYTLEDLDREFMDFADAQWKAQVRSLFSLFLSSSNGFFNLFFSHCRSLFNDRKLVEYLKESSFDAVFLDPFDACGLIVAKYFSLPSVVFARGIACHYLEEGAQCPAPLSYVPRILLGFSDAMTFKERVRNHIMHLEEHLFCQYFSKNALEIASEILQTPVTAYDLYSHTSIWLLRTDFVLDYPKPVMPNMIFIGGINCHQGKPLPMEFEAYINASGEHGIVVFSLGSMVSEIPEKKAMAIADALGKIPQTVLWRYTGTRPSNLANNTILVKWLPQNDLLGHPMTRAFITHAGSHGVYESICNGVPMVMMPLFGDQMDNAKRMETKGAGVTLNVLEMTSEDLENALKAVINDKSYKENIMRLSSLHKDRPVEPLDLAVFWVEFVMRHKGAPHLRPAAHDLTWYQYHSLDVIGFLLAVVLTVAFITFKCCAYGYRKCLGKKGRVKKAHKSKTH
In words: Inhibition of raloxifene glucuronidation by recombinant UGT1A8 Supersomes. The note with it: inhibitor 50 μM; for activity at 15 min, 50 µM: human, Supersomes with recombinant human UGT1A8, pH 7.5, probe raloxifene 50 μM.

“And” between values parts separate entries of the source, which are not always exact repeats. Equal entries are not always repeated.

Description for UGT1A8: (§2) Compounds were eluted using a binary solvent gradient system. Solvent A was water brought to pH 8 with NH4OH. Solvent B was methanol. Solvent flow rate was 1 ml/min and the column temperature was maintained at 50° C. Detection was at 280 nm. […] The system was then returned to the initial conditions and equilibrated for 3 min.
Description for UGT1A9: as §2

`O=C(O[C@@H]1Cc2c(O)cc(O)cc2O[C@@H]1c1cc(O)c(O)c(O)c1)c1cc(O)c(O)c(O)c1` [Epigallocatechin gallate]: the “% of control metabolism, raloxifene G1” value was 38 (2) % in data set [1], 58 (1) % on UGT1A9 (inhibitor 25 μM), 33 (4) % on UGT1A9 (inhibitor 50 μM) and 69 (3) % at UGT1A8 (UGT1A8). For the same compound, the “% of control metabolism, raloxifene G2” value in data set [1] is 35 (4) %; on UGT1A9 (inhibitor 25 μM), 50 (1) %; at UGT1A9 (inhibitor 50 μM) it was 22 (2) %; at UGT1A8 (UGT1A8), 54 (2) %. The “residual metabolism (% of control), E2-3-β-D-glucuronide” value is recorded as 46 (1) % in data set [2] and 45 (2) % in data set [4]. For the same compound, the “residual metabolism (% of control), E2-17-β-D-glucuronide” value in data set [3] was 82 (2) %; in data set [4], 70 (1) %. The “residual metabolism (% of control), 2ME2 MG1” value in data set [5] (inhibitor 25 μM) is recorded as 66 (2) %; in data set [5] (inhibitor 50 μM), 50 (3) %; in data set [5] (inhibitor 100 μM), 35 (2) %. Further, the “residual metabolism (percentage of control), zidovudine glucuronidation” value in data set [6] (inhibitor 50 μM) is 70 (1) %; in data set [6] (inhibitor 100 μM) it was 60 (2) %; in data set [6] (inhibitor 200 μM), 39 (2) %; in data set [6] (inhibitor 500 μM), 18 (1) %. Moreover, the figures for the “Inhibition of raloxifene glucuronidation, UGT1A9, first line per inhibitor (G1)” value on UGT1A9 (inhibitor 25 μM) and at UGT1A9 (inhibitor 50 μM) were 58 (1) and 33 (4), respectively. Further, the “Inhibition of raloxifene glucuronidation, UGT1A9, second line per inhibitor (G2)” value on UGT1A9 (inhibitor 25 μM) is listed as 50 (1); at UGT1A9 (inhibitor 50 μM) it was 22 (2).
As for `O=C(O[C@@H]1Cc2c(O)cc(O)cc2O[C@H]1c1cc(O)c(O)c(O)c1)c1cc(O)c(O)c(O)c1` [Gallocatechin gallate], the “% of control metabolism, raloxifene G1” value in data set [1] was 10 (0), 10 (0) %. For the same compound, the “% of control metabolism, raloxifene G2” value in data set [1] is given as 10 (0), 10 (0) %. For the same compound, the “residual metabolism (% of control), E2-3-β-D-glucuronide” value in data set [2] is reported as 24 (1) %; in data set [4], 33 (2) %. Moreover, the “residual metabolism (% of control), E2-17-β-D-glucuronide” value in data set [3] is reported as 69 (4) %; in data set [4], 55 (2) %. Also, the “residual metabolism (% of control), 2ME2 MG1” value was 69 (3) % in data set [5] (inhibitor 10 μM), 51 (2) % in data set [5] (inhibitor 25 μM), 31 (1) % in data set [5] (inhibitor 50 μM) and 9 (1) % in data set [5] (inhibitor 100 μM). The “residual metabolism (percentage of control), zidovudine glucuronidation” value in data set [6] (inhibitor 50 μM) is 66 (3) %; in data set [6] (inhibitor 100 μM) it was 56 (1) % and 59 (3) %; in data set [6] (inhibitor 200 μM), 49 (1) % and 40 (2) %. Also, the activity at 15 min, 25 µM on UGT1A9 (formation of glucuronide G1, % of control metabolism, raloxifene G1, UGT1A9, inhibitor 25 μM) was found to be 72%; at UGT1A9 (formation of glucuronide G2, % of control metabolism, raloxifene G2, UGT1A9, inhibitor 25 μM), 63%. For the same compound, the activity at 15 min, 50 µM on UGT1A9 (formation of glucuronide G1, % of control metabolism, raloxifene G1, UGT1A9, inhibitor 50 μM) was found to be 47%; on UGT1A9 (formation of glucuronide G2, % of control metabolism, raloxifene G2, UGT1A9, inhibitor 50 μM) it was 44%; on UGT1A8 (formation of glucuronide G1, % of control metabolism, raloxifene G1, UGT1A8), 36%; on UGT1A8 (formation of glucuronide G2, % of control metabolism, raloxifene G2, UGT1A8) it was 35%. In addition, the figures for the “Inhibition of raloxifene glucuronidation, UGT1A9, second line per inhibitor (G2)” value at UGT1A9 (inhibitor 25 μM) and on UGT1A9 (inhibitor 50 μM) were 63 (4) and 44 (2), respectively.
